Reference: PubChem BioAssay (NCI)
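Growth conditions: 96-well plates. Treatment: test compound, 48 hours, 5 concentrations. Analysis: linear interpolation between bracketing concentrations; unreached endpoints set to highest concentration. Definition used: TGI = concentration required for complete inhibition of growth.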

Tests used:
Assay in all cases: growth of human tumour cells (NCI), 48 h
MOLT-4 leukemia = system: MOLT-4 leukemia
MDA-MB-435 = system: MDA-MB-435
SK-MEL-28 melanoma = system: SK-MEL-28 melanoma
A549 NSCLC = system: A549 NSCLC
SK-MEL-2 melanoma = system: SK-MEL-2 melanoma
MALME-3M melanoma = system: MALME-3M melanoma
SK-OV-3 ovarian = system: SK-OV-3 ovarian
OVCAR-4 ovarian = system: OVCAR-4 ovarian
HS 578T breast = system: HS 578T breast
OVCAR-8 ovarian = system: OVCAR-8 ovarian
TK-10 renal = system: TK-10 renal
HL-60(TB) leukemia = system: HL-60(TB) leukemia
HCC-2998 colon = system: HCC-2998 colon
NCI/ADR-RES ovarian = system: NCI/ADR-RES ovarian
SF-539 CNS = system: SF-539 CNS
IGROV1 ovarian = system: IGROV1 ovarian
SN12C renal = system: SN12C renal
SW-620 colon = system: SW-620 colon
EKVX NSCLC = system: EKVX NSCLC
MDA-N = system: MDA-N
ACHN renal = system: ACHN renal
HT29 colon = system: HT29 colon
NCI-H226 lung = system: NCI-H226 lung
NCI-H460 lung = system: NCI-H460 lung
UACC-257 melanoma = system: UACC-257 melanoma
HCT-15 colon = system: HCT-15 colon
SK-MEL-5 melanoma = system: SK-MEL-5 melanoma
OVCAR-5 ovarian = system: OVCAR-5 ovarian
MCF7 breast = system: MCF7 breast
SF-295 CNS = system: SF-295 CNS
DU-145 prostate = system: DU-145 prostate
NCI-H23 lung = system: NCI-H23 lung
COLO 205 colon = system: COLO 205 colon
HCT-116 colon = system: HCT-116 colon
T-47D breast = system: T-47D breast
K-562 leukemia = system: K-562 leukemia
UO-31 renal = system: UO-31 renal
SNB-19 CNS = system: SNB-19 CNS
BT-549 breast = system: BT-549 breast
NCI-H522 lung = system: NCI-H522 lung
RPMI-8226 leukemia = system: RPMI-8226 leukemia
MDA-MB-231 breast = system: MDA-MB-231 breast
U251 CNS = system: U251 CNS
PC-3 prostate = system: PC-3 prostate
SF-268 CNS = system: SF-268 CNS
A498 renal = system: A498 renal
HOP-62 NSCLC = system: HOP-62 NSCLC
UACC-62 melanoma = system: UACC-62 melanoma
786-0 renal = system: 786-0 renal
SNB-75 CNS = system: SNB-75 CNS
CAKI-1 renal = system: CAKI-1 renal
CCRF-CEM leukemia = system: CCRF-CEM leukemia
M14 melanoma = system: M14 melanoma
KM12 colon = system: KM12 colon
SR leukemia = system: SR leukemia
OVCAR-3 ovarian = system: OVCAR-3 ovarian
LOX IMVI melanoma = system: LOX IMVI melanoma
HOP-92 NSCLC = system: HOP-92 NSCLC
RXF 393 renal = system: RXF 393 renal

`COC(O)C(=O)c1c2c(cc3c1CCC3)CCCC2` (stereo not drawn) gave a TGI (MOLT-4 leukemia) of 14.2 µM, a TGI (MDA-MB-435) of 36.7 µM and a TGI (SK-MEL-28 melanoma) of 26.4 µM. For the same compound, the TGI (A549 NSCLC) was 40.9 µM, the TGI (SK-MEL-2 melanoma) was 30.2 µM and the TGI (MALME-3M melanoma) was 27.8 µM. It also gave a TGI (SK-OV-3 ovarian) of 24.6 µM, a TGI (OVCAR-4 ovarian) of 17.5 µM and a TGI (HS 578T breast) of 36.2 µM. It also gave a TGI (OVCAR-8 ovarian) of 25.4 µM, a TGI (TK-10 renal) of 29.9 µM and a TGI (HL-60(TB) leukemia) of 4.31 µM. For the same compound, the TGI (HCC-2998 colon) was 4.28 µM, the TGI (NCI/ADR-RES ovarian) was 61.5 µM and the TGI (SF-539 CNS) was 16.6 µM. The TGI (IGROV1 ovarian) was 14 µM, the TGI (SN12C renal) was 19.5 µM and the TGI (SW-620 colon) was 12.3 µM. It also gave a TGI (EKVX NSCLC) of 31.1 µM, a TGI (MDA-N) of 30.4 µM and a TGI (ACHN renal) of 21 µM. For the same compound, the TGI (HT29 colon) was 12.9 µM, the TGI (NCI-H226 lung) was 38 µM and the TGI (NCI-H460 lung) was 19.7 µM. It also gave a TGI (UACC-257 melanoma) of 25.9 µM, a TGI (HCT-15 colon) of 13.8 µM and a TGI (SK-MEL-5 melanoma) of 9.47 µM. It also gave a TGI (OVCAR-5 ovarian) of 36.7 µM, a TGI (MCF7 breast) of 18 µM and a TGI (SF-295 CNS) of 26 µM. It also gave a TGI (DU-145 prostate) of 30.5 µM, a TGI (NCI-H23 lung) of 31.7 µM and a TGI (COLO 205 colon) of 19.3 µM. For the same compound, the TGI (HCT-116 colon) was 4.6 µM, the TGI (T-47D breast) was 44.2 µM and the TGI (K-562 leukemia) was 12.7 µM. For the same compound, the TGI (UO-31 renal) was 31.5 µM, the TGI (SNB-19 CNS) was 32.8 µM and the TGI (BT-549 breast) was 6.41 µM. For the same compound, the TGI (NCI-H522 lung) was 13.2 µM, the TGI (RPMI-8226 leukemia) was 5.63 µM and the TGI (MDA-MB-231 breast) was 27.6 µM. For the same compound, the TGI (U251 CNS) was 27.8 µM, the TGI (PC-3 prostate) was 11 µM and the TGI (SF-268 CNS) was 45.5 µM. It also gave a TGI (A498 renal) of 18 µM, a TGI (HOP-62 NSCLC) of 33.3 µM and a TGI (UACC-62 melanoma) of 12.3 µM. It also gave a TGI (786-0 renal) of 27.8 µM, a TGI (SNB-75 CNS) of 26 µM and a TGI (CAKI-1 renal) of 28.3 µM. The TGI (CCRF-CEM leukemia) was 6.69 µM, the TGI (M14 melanoma) was 24.9 µM and the TGI (KM12 colon) was 34.1 µM. For the same compound, the TGI (SR leukemia) was 13.9 µM, the TGI (OVCAR-3 ovarian) was 14.5 µM and the TGI (LOX IMVI melanoma) was 4.95 µM.

In the case of `CCN1C(Cl)=NS(=O)(=O)c2ccccc21`, the TGI (MOLT-4 leukemia) is reported as > 100 µM, the TGI (MDA-MB-435) is reported as > 100 µM and the TGI (SK-MEL-28 melanoma) is reported as > 100 µM. The TGI (A549 NSCLC) was > 100 µM, the TGI (SK-MEL-2 melanoma) was > 100 µM and the TGI (SK-OV-3 ovarian) was > 100 µM. The TGI (OVCAR-4 ovarian) was 47.8 µM, the TGI (HS 578T breast) was > 100 µM and the TGI (OVCAR-8 ovarian) was > 100 µM. It also gave a TGI (TK-10 renal) of 37 µM, a TGI (HL-60(TB) leukemia) of 87.2 µM and a TGI (HCC-2998 colon) of 45.7 µM. The TGI (NCI/ADR-RES ovarian) was 85.2 µM, the TGI (SF-539 CNS) was 35.9 µM and the TGI (IGROV1 ovarian) was > 100 µM. The TGI (SN12C renal) was 37.9 µM, the TGI (SW-620 colon) was > 100 µM and the TGI (HOP-92 NSCLC) was 42.1 µM. For the same compound, the TGI (EKVX NSCLC) was 53.7 µM, the TGI (MDA-N) was > 100 µM and the TGI (ACHN renal) was 34.1 µM. The TGI (HT29 colon) was > 100 µM, the TGI (NCI-H226 lung) was 55.7 µM and the TGI (NCI-H460 lung) was 64.7 µM. The TGI (UACC-257 melanoma) was 80.8 µM, the TGI (HCT-15 colon) was 35.2 µM and the TGI (SK-MEL-5 melanoma) was 33.1 µM. The TGI (OVCAR-5 ovarian) was 76 µM, the TGI (MCF7 breast) was > 100 µM and the TGI (SF-295 CNS) was > 100 µM. The TGI (DU-145 prostate) was > 100 µM, the TGI (NCI-H23 lung) was 52.5 µM and the TGI (COLO 205 colon) was 32.5 µM. It also gave a TGI (HCT-116 colon) of 74 µM, a TGI (T-47D breast) of 78.6 µM and a TGI (K-562 leukemia) of 39.3 µM. The TGI (UO-31 renal) was 32.1 µM, the TGI (SNB-19 CNS) was > 100 µM and the TGI (BT-549 breast) was 44 µM. For the same compound, the TGI (NCI-H522 lung) was 24.6 µM, the TGI (MDA-MB-231 breast) was 65.1 µM and the TGI (U251 CNS) was > 100 µM. For the same compound, the TGI (PC-3 prostate) was > 100 µM, the TGI (SF-268 CNS) was > 100 µM and the TGI (A498 renal) was 44.6 µM. The TGI (HOP-62 NSCLC) was 70.1 µM, the TGI (UACC-62 melanoma) was 25.6 µM and the TGI (786-0 renal) was 64.6 µM. The TGI (CAKI-1 renal) was 4.31 µM, the TGI (CCRF-CEM leukemia) was 81 µM and the TGI (M14 melanoma) was 32.8 µM. The TGI (KM12 colon) was > 100 µM, the TGI (RXF 393 renal) was 32.2 µM and the TGI (SR leukemia) was > 100 µM. For the same compound, the TGI (OVCAR-3 ovarian) was 34.8 µM and the TGI (LOX IMVI melanoma) was 36.7 µM.
